The values that follow are results of earlier work, collected in US20080153738A1, “COMPOSITIONS AND METHODS FOR TREATMENT OF HYPERPLASIA” (priority 1997, published 2008).

The series deals with in-stent restenosis in porcine coronary arteries.

The structures appear in SMILES notation.

For the compound `CC(=O)O[C@H]1C(=O)[C@@]2(C)[C@H]([C@H](OC(=O)c3ccccc3)[C@]3(O)C[C@H](OC(=O)[C@H](O)[C@@H](NC(=O)c4ccccc4)c4ccccc4)C(C)=C1C3(C)C)[C@]1(OC(C)=O)CO[C@@H]1C[C@@H]2O` [paclitaxel, Paclitaxel], the neointimal area result (90 μg paclitaxel stents) was “significant reduction in neointimal area”. Also, the Lumen area entry (15 and 90 μg paclitaxel stents, directly applied without polymer) is “Lumen area was increased”. For the same compound, under “stents coated with 90 μg of paclitaxel”, the local cytotoxic effects result is “significant local cytotoxic effects were observed”. The “diameter stenosis and neointimal area” value (stents coated with biodegradable polymer, slow-release paclitaxel 175-200 μg/stent, 4 weeks) is “reduction in diameter stenosis and neointimal area”.
